Assay results reported in patent EP4696306A1, “ADENOSINE TRIPHOSPHATE SECRETION INHIBITOR, HEPATIC STELLATE CELL ACTIVATION INHIBITOR, HEPATIC STELLATE CELL DEACTIVATOR, HEPATIC FIBROSIS THERAPEUTIC AGENT, NON-ALCOHOLIC STEATOHEPATITIS THERAPEUTIC AGENT, PSORIASIS THERAPEUTIC AGENT, AND USE OF COMPOUND FOR PRODUCING ADENOSINE TRIPHOSPHATE …” (KURUME UNIVERSITY, priority 2023, dated 2024).

Key:
[1] = tested on: human epidermal keratinocytes; assay: ATP secretion promoted by ionomycin in keratinocytes; type: cell-based
Method: Human epidermal keratinocytes (Cryopreserved HEK, Lot 1758, Cell Applications Inc.) were cultured using an Epivita Keratinocyte Growth Medium Kit according to the manufacturer's instructions. The procedure was as follows. A supplement medium was added to a hydrocortisone-containing basal medium included in the medium preparation kit to prepare a complete medium. The medium in the dish was removed by aspiration. The cells were washed with 5 ml of BSS (Gbco), and then the BSS was removed by aspiration. After addition of 5 to 6 ml of trypsin/EDTA solution (Gbco), the dish was incubated at 37°C for 2 minutes. After addition of 5 ml of trypsin neutralization solution, the resulting cell suspension was transferred into two 15-ml Falcon tubes, and centrifuged at 200 × g for 5 minutes. The supernatant was removed by aspiration, and the pelleted cell cluster was suspended in 2 ml of the medium at 4.5 × 10^5 cells/ml. An aliquot of the resulting cell suspension was cryopreserved, while another aliquot was cultured and subjected to measurement.
ATP secretion by human epidermal keratinocytes (hereinafter referred to as "keratinocytes") was measured. Regarding control solutions, Krebs-Ringer HEPES supplemented with 0.2% BSA and 25 mM glucose (hereinafter also referred to as "Krebs/Iono(-)") was used as a negative control, and a solution prepared by adding 5 µM ionomycin to this solution (hereinafter also referred to as "Krebs/Iono(+)") was used as a positive control for ATP secretion. Ionomycin is a Ca^2+ ionophore. Addition of ionomycin to cells is known to promote influx of extracellular Ca^2+ into the cells to increase the intracellular Ca^2+ concentration, resulting in enhancement of ATP secretion. Test solutions were prepared by adding clodronate to Krebs/Iono(-) or Krebs/Iono(+) to a final concentration of 0.1 µM (hereinafter also referred to as "Clo/Iono(-)" or "Clo/Iono(+)", respectively) (N = 3).
Keratinocytes were cultured at 2.5 × 10^4 cells/well in a 24-well plate at 37°C in 5% CO2 for 4 days. The medium was removed by aspiration, replaced with Krebs/Iono(-) or Clo/Iono(-), and incubated at 37°C for 6 hours. These solutions were then removed by aspiration, and the content of each well incubated with Krebs/Iono(-) was replaced with 300 µl of a control solution (Krebs/Iono(-) or Krebs/Iono(+)), while the content of each well incubated with Clo/Iono(-) was replaced with 300 µl of a test solution (Clo/Iono(-) or Clo/Iono(+)). After further incubation at 37°C for 20 minutes, 200 µl of the supernatant was collected. The collected supernatant was immediately treated on a heat block at 95°C for 10 minutes, to inactivate ectonucleotidase. ATP in the supernatant was quantified using a Dojindo ATP assay kit - Luminescence (manufactured by Dojindo Laboratories).
After culturing keratinocytes, the medium was removed by aspiration, and replaced with Krebs/Iono(-), or Krebs/Iono(-) supplemented with 10 µM imeglimin, 0.1 µM EPA, 1 µM EPA, or 10 µM clodronate, followed by incubation for 6 hours. Subsequently, the solution was replaced with either a control solution (Krebs/Iono(-) or Krebs/Iono(+)) or a test solution (Krebs/Iono(+) supplemented with 10 µM imeglimin, 0.1 µM EPA, 1 µM EPA, or 10 µM clodronate), followed by incubation at 37°C for 20 minutes and then collection of 200 µl of the supernatant. The collected supernatant was immediately treated on a heat block at 95°C for 10 minutes to inactivate ectonucleotidase. ATP in the supernatant was quantified using a Dojindo ATP assay kit - Luminescence (manufactured by Dojindo Laboratories).
Keratinocytes were cultured in the same manner as in Example 1, and the medium was replaced with Krebs/Iono(-), Krebs/Iono(-) supplemented with 0.1 µM, 1 µM, or 10 µM imeglimin, or Krebs/Iono(-) supplemented with 0.1 µM, 1 µM, or 10 µM metformin, followed by incubation for 6 hours. […]

LX-2 cells = assay: ATP secretion from LX-2 cells; type: cell-based, human
Method: Cells of the immortalized human hepatic stellate cell line LX-2 (manufactured by Merck) was cultured in Dulbecco's modified Eagle's medium (DMEM, 4500 mg/l Glucose, D5796, manufactured by Sigma-Aldrich) supplemented with inactivated 2% fetal bovine serum (FBS), 10 IU/ml penicillin, and 10 IU/ml streptomycin in a T25 or T75 flask at 37°C in 5% CO2.
LX-2 cells (2 × 10^6 cells per well) were seeded in a collagen-coated 6-well culture dish containing Dulbecco's modified Eagle's medium (manufactured by Sigma-Aldrich) supplemented with 10 IU/ml penicillin, […] 2% fetal bovine serum, and cultured in 5% CO2 at 37°C. After 3 days, the LX-2 cells were washed twice and preincubated in Krebs-Ringer buffer (10 mM HEPES-Tris, pH 7.4, 128 mM NaCl, 1.9 mM KCl, 1.2 mM KH2PO4, 1.3 mM MgSO4, 26 mM NaHCO3, 2.4 mM CaCl2, 10 mM glucose, 0.2% (w/v) bovine serum albumin) with or without 10 µM clodronate. The LX-2 cells were then stimulated with Krebs-Ringer buffer supplemented with ionomycin (manufactured by Cayman) regardless of whether clodronate was present or not. For the stimulation, 1 mM EGTA (manufactured by Dojindo) or 10 µM serotonin (5-HT, manufactured by Sigma-Aldrich) was used. The ATP concentration in the culture supernatant was measured in the same manner as in Example 6.

THP-1 cells = assay: LPS-stimulated ATP secretion in macrophages differentiated from THP-1 cells; type: cell-based, human; settings: 10 µM; LPS 10 µg/ml 10 minutes; N = 10
Method: Human acute monocytic leukemia cells (THP-1 cells (ACTT)) were cultured in accordance with Reference D. THP-1 cells were cultured in RPMI1640 medium supplemented with 10% fetal bovine serum (FBS), 100 units/ml penicillin, and 100 µg/ml streptomycin at 37°C in 5% CO2 for 1 day. Further, THP-1 cells were cultured in RPMI1640 medium supplemented with 1 µg/ml Escherichia coli scrotype 055:B5 (manufactured by Sigma-Aldrich) and 1000 units/ml mouse IFN-γ (manufactured by R&D Systems) at 37°C in 5% CO2 for 1 day, to allow differentiation into macrophages.
The differentiated macrophages were cultured in RPMI1640 medium supplemented with 1 mg/ml Escherichia coli scrotype 055:B5 (manufactured by Sigma-Aldrich) and 1000 units/ml mouse IFN-γ (manufactured by R&D Systems) at 2.5 × 10^4 cells/well in a 24-well plate at 37°C in 5% CO2 for 4 days. The medium was replaced with HBSS (manufactured by Gibco) supplemented with imeglimin or clodronate), and then LPS (10 µg/ml) was added thereto, followed by further performing incubation for 10 minutes and then collection of 200 µl of the supernatant. The supernatant was immediately treated on a heat block at 95°C for 10 minutes, and ATP in the supernatant was quantified using an ATP assay kit - Luminescence (manufactured by Dojindo) (N = 10).

[2] = 10 µM, 6 hours incubation, then 20 minutes with ionomycin, N = 4

## C=C(OP(=O)(O)O)C(=O)O [PEP, phosphoenolpyruvic acid]
[1]; 5 mM PEP, 20 minutes, N = 4
  ATP secretion promoted by ionomycin: inhibited
[1]; 10 mM PEP, 20 minutes, N = 4
  ATP secretion promoted by ionomycin: inhibited
[1]; data not shown
  concentration exhibiting a relatively strong ATP secretion inhibitory effect: not less than 3 mM

## O=P(O)(O)C(Cl)(Cl)P(=O)(O)O [clodronate]
LX-2 cells; 10 µM clodronate, N = 6
  ATP exocytosis induced by ionomycin: inhibited
LX-2 cells; 10 µM serotonin, 10 µM clodronate, N = 6
  ATP secretion promoted by 5-HT: strongly inhibited
[1]; 0.1 µM clodronate, 6 hours incubation, then 20 minutes with 5 µM ionomycin, N = 3
  ATP secretion promoted by ionomycin: inhibits the ATP secretion promoted by ionomycin
[1]; [2]
  ATP secretion promoted by ionomycin: inhibited
THP-1 cells
  ATP secretion upon LPS stimulation: strongly inhibited

## C[C@H]1N=C(N(C)C)N=C(N)N1 [imeglimin]
LX-2 cells; imeglimin, concentration not given, N = 8
  ATP secretion from the LX-2 cells: inhibited ATP secretion
[1]; 0.1 µM, 1 µM, 10 µM, 6 hours incubation, N = 3
  ATP secretion inhibitory effect, comparison and concentration dependence: slightly higher ATP secretion inhibitory effect than metformin
[1]; 0.1 µM, 6 hours incubation, N = 3
  ATP secretion inhibitory effect: exhibit an ATP secretion inhibitory effect
[1]; 1 µM imeglimin
  time required for production of a strong inhibitory effect: about 6 hours
[1]; 1 µM imeglimin, incubation time 2 hours, N = 3
  ATP secretion level relative to that obtained using the control solution: about 85%
[1]; 1 µM imeglimin, incubation time 6 hours, N = 3
  ATP secretion level relative to that obtained using the control solution: about 40%
[1]; 10 µM imeglimin versus 1 µM EPA and 10 µM clodronate
  ATP secretion inhibitory effect compared with reference inhibitors: comparable to those of 1 µM EPA and 10 µM clodronate
[1]; [2]
  ATP secretion promoted by ionomycin: inhibited
THP-1 cells
  ATP secretion upon LPS stimulation: strongly inhibited
